These are literature values, as cited in patent US10034846B2, “Famciclovir and celecoxib combination therapy for functional somatic syndromes” (INNOVATIVE MED CONCEPTS, LLC, priority 2012, dated 2018).

Molecules are shown by their SMILES.

In the data set the test system is fibromyalgia patients. Conditions: Kendall et al., J. Rheumatology (2004) 31, 783-784.

For the compound `CC(C)[C@H](N)C(=O)OCCOCn1cnc2c(=O)[nH]c(N)nc21` [valacyclovir], the “Treatment of fibromyalgia patients” value is “not successful”.
